Data: ChEMBL document CHEMBL5532657, “Serendipitous discovery of Class I HDAC inhibitors from rational design of molecular glue degraders targeting HDAC” (Eur J Med Chem, 2024)
The source made the active and inactive calls.

Experiments:
Histone deacetylase 1 = Histone deacetylase 1 (Homo sapiens, UniProt Q13547); test: Induction of HDAC1 degradation in human RS4-11 cells at 0.5 to 10 uM incubated for 12 hrs by Western blotting analysis; type: cell-based; details: dose 0.5-10 µM
HCT-116 = test: Antiproliferative activity against human HCT-116 cells assessed as cell growth inhibition at 5 uM incubated for 48 hrs by CCK-8 assay; type: functional, cell-based
A549 = test: Antiproliferative activity against human A549 cells assessed as cell growth inhibition at 5 uM incubated for 48 hrs by CCK-8 assay; type: functional, cell-based
HeLa = test: Antiproliferative activity against human HeLa cells assessed as cell growth inhibition at 5 uM incubated for 48 hrs by CCK-8 assay; type: functional, cell-based
[1] = target: T1, Protein deacetylase HDAC6 (Homo sapiens) (UniProt Q9UBN7); test: Induction of HDAC6 degradation in human RS4-11 cells at 0.5 to 10 uM incubated for 12 hrs by Western blotting analysis; type: cell-based; details: dose 0.5-10 µM
T1 sequence (whole entry): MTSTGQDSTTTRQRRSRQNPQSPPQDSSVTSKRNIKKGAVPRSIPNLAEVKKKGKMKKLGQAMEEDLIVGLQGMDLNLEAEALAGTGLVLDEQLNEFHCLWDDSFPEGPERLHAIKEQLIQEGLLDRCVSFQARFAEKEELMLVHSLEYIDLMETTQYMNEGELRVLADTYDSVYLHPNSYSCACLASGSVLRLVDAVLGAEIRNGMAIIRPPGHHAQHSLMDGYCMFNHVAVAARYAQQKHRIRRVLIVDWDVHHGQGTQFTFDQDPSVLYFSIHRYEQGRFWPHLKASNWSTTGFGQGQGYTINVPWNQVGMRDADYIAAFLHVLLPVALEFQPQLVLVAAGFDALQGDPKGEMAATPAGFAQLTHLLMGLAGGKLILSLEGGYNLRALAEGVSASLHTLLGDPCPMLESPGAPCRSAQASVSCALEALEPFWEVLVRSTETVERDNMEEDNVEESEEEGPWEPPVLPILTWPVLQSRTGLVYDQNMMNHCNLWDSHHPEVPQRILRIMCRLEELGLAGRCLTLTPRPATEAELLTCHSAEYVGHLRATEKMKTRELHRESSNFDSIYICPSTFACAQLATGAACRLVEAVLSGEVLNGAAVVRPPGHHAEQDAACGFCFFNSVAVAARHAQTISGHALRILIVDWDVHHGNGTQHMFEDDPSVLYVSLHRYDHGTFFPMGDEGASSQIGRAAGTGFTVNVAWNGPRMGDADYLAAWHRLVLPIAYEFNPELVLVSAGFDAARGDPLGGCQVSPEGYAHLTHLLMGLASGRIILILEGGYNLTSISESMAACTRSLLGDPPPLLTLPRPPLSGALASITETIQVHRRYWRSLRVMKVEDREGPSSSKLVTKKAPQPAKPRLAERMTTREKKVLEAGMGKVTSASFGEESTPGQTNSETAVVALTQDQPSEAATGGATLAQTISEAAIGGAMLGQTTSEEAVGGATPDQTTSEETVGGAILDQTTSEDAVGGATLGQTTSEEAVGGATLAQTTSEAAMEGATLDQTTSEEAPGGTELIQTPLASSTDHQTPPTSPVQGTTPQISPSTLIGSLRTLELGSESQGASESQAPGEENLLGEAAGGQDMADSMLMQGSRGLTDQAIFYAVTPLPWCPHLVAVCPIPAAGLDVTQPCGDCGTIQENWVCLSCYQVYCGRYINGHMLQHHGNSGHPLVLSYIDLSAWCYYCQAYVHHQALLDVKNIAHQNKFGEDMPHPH

Measured: Activity

Sequence of Histone deacetylase 1 (Q13547 whole entry): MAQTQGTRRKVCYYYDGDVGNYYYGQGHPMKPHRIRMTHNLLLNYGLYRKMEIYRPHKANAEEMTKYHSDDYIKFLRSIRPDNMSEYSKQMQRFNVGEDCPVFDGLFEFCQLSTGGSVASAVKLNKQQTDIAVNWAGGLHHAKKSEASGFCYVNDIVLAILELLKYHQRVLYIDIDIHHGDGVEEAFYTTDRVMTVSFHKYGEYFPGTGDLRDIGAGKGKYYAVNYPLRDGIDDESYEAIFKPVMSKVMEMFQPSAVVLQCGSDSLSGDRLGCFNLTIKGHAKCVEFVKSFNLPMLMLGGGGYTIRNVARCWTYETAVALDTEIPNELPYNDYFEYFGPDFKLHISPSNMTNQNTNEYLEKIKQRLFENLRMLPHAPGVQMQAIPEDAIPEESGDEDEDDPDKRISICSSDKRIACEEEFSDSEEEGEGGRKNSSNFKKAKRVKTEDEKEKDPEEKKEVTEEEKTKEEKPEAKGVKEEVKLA

Nc1ccccc1NC(=O)CCCCNc1cccc2c1C(=O)N(C1CCC(=O)NC1=O)C2=O (stereo not given)
inactive: all assays above

O=C1CCC(N2C(=O)c3cccc(NCc4ccc(C(=O)NO)cc4)c3C2=O)C(=O)N1 (stereo not given)
inactive: all assays above

Nc1cc(F)ccc1NC(=O)c1cn(CCOCCOCCOCCNc2cccc3c2C(=O)N(C2CCC(=O)NC2=O)C3=O)nn1 (stereo not given)
inactive: all assays above

O=C(CCCCCCNc1cccc2c1C(=O)N(C1CCC(=O)NC1=O)C2=O)NCCS (stereo not given)
inactive: all assays above

Nc1cc(F)ccc1NC(=O)CCCCNc1cccc2c1C(=O)N(C1CCC(=O)NC1=O)C2=O (stereo not given)
inactive: all assays above

O=C(CCCCNc1cccc2c1C(=O)N(C1CCC(=O)NC1=O)C2=O)NO (stereo not given)
inactive: all assays above

Nc1ccccc1NC(=O)c1cn(CCOCCOCCOCCNc2cccc3c2C(=O)N(C2CCC(=O)NC2=O)C3=O)nn1 (stereo not given)
inactive: all assays above

O=C(CCCCNc1cccc2c1C(=O)N(C1CCC(=O)NC1=O)C2=O)NCCS (stereo not given)
inactive: all assays above

O=C1CCC(N2C(=O)c3cccc(NCCOCCOCCOCCn4cc(C(=O)NO)nn4)c3C2=O)C(=O)N1 (stereo not given)
inactive: all assays above

O=C(CCCCCNc1cccc2c1C(=O)N(C1CCC(=O)NC1=O)C2=O)NO (stereo not given)
inactive: all assays above

CCCNNC(=O)c1ccc(CNc2cccc3c2C(=O)N(C2CCC(=O)NC2=O)C3=O)cc1 (stereo not given)
inactive: all assays above

O=C1CCC(N2C(=O)c3cccc(NCCOCCOCCn4cc(C(=O)NO)nn4)c3C2=O)C(=O)N1 (stereo not given)
inactive: all assays above

O=C(CCCCCNc1cccc2c1C(=O)N(C1CCC(=O)NC1=O)C2=O)NCCS (stereo not given)
inactive: all assays above

Nc1cc(F)ccc1NC(=O)c1cn(CCOCCNc2cccc3c2C(=O)N(C2CCC(=O)NC2=O)C3=O)nn1 (stereo not given)
inactive: all assays above

Nc1ccccc1NC(=O)c1cn(CCOCCNc2cccc3c2C(=O)N(C2CCC(=O)NC2=O)C3=O)nn1 (stereo not given)
inactive: all assays above

Nc1ccccc1NC(=O)CCCCCCCNc1cccc2c1C(=O)N(C1CCC(=O)NC1=O)C2=O (stereo not given)
inactive: all assays above

O=C1CCC(N2C(=O)c3cccc(NCCOCCOCCn4cc(C(=O)NCCS)nn4)c3C2=O)C(=O)N1 (stereo not given)
inactive: all assays above

O=C1CCC(N2C(=O)c3cccc(NCCOCCn4cc(C(=O)NCCS)nn4)c3C2=O)C(=O)N1 (stereo not given)
inactive: all assays above

O=C1CCC(N2C(=O)c3cccc(NCCOCCn4cc(C(=O)NO)nn4)c3C2=O)C(=O)N1 (stereo not given)
inactive: all assays above

Nc1ccccc1NC(=O)CCCCCNc1cccc2c1C(=O)N(C1CCC(=O)NC1=O)C2=O (stereo not given)
inactive: all assays above

Nc1cc(F)ccc1NC(=O)CCCCCCCNc1cccc2c1C(=O)N(C1CCC(=O)NC1=O)C2=O (stereo not given)
inactive: all assays above

CCCNNC(=O)CCCCCCNc1cccc2c1C(=O)N(C1CCC(=O)NC1=O)C2=O (stereo not given)
inactive: all assays above

Nc1cc(F)ccc1NC(=O)CCCCCNc1cccc2c1C(=O)N(C1CCC(=O)NC1=O)C2=O (stereo not given)
inactive: all assays above

O=C1CCC(N2C(=O)c3cccc(NCc4ccc(C(=O)NCCS)cc4)c3C2=O)C(=O)N1 (stereo not given)
inactive: all assays above

Nc1cc(F)ccc1NC(=O)c1cn(CCOCCOCCNc2cccc3c2C(=O)N(C2CCC(=O)NC2=O)C3=O)nn1 (stereo not given)
inactive: all assays above

Nc1cc(F)ccc1NC(=O)CCCNc1cccc2c1C(=O)N(C1CCC(=O)NC1=O)C2=O (stereo not given)
inactive: all assays above

CCNNC(=O)c1ccc(CNc2cccc3c2C(=O)N(C2CCC(=O)NC2=O)C3=O)cc1 (stereo not given)
inactive: all assays above

CCNNC(=O)CCCCCCNc1cccc2c1C(=O)N(C1CCC(=O)NC1=O)C2=O (stereo not given)
inactive: all assays above

Nc1ccccc1NC(=O)c1cn(CCOCCOCCNc2cccc3c2C(=O)N(C2CCC(=O)NC2=O)C3=O)nn1 (stereo not given)
inactive: all assays above

Nc1ccccc1NC(=O)CCCCCCNc1cccc2c1C(=O)N(C1CCC(=O)NC1=O)C2=O (stereo not given)
inactive: all assays above

O=C1CCC(N2C(=O)c3cccc(NCCOCCOCCOCCn4cc(C(=O)NCCS)nn4)c3C2=O)C(=O)N1 (stereo not given)
inactive: all assays above
